Laboratory results reported in article PMC6095594, “Pre-clinical evaluation of quinoxaline-derived chalcones in tuberculosis” (PLoS ONE, 2018).

Legend:
[1] = test system: S. typhimurium TA102; assay: Salmonella/microsome mutagenicity test
Method: (§1) Salmonella typhimurium strains TA98, TA97a, TA100, TA1535, and TA102 were provided by MOLTOX® (Molecular Toxicology Inc. USA). Mutagenicity was assayed according to the pre-incubation procedure following the recommendation described in Mortelmans and Zieger (2000). […] Briefly, 100 μL of test bacterial cultures (1–2 x 10^9 cells/mL) were incubated at 37 °C with different concentrations of N9 (10–400 μg/plate) in the presence or absence of S9 mix, for 20 min, without shaking. […] 2-aminoanthracene (2-AA, 5 μg/plate) was used as positive control for all strains in the presence of metabolic activation (with S9 mix). […] Plates were incubated in the dark at 37 °C for 48 h before counting the revertant colonies. Assays were repeated twice and the plating for each concentration was conducted in triplicate. Data were evaluated by one-way analysis of variance (ANOVA), followed by Dunnett's post-test, using GraphPad Prism 5.0 (GraphPad, San Diego, CA, USA).

[2] = test system: S. typhimurium TA97a; assay: Salmonella/microsome mutagenicity test
Method: as §1

[3] = test system: S. typhimurium TA98; assay: Salmonella/microsome mutagenicity test
Method: as §1

[4] = biological target: CYP2C9 (Homo sapiens, UniProt P11712); details: human liver microsomes
CYP2C9, sequence (P11712 whole entry): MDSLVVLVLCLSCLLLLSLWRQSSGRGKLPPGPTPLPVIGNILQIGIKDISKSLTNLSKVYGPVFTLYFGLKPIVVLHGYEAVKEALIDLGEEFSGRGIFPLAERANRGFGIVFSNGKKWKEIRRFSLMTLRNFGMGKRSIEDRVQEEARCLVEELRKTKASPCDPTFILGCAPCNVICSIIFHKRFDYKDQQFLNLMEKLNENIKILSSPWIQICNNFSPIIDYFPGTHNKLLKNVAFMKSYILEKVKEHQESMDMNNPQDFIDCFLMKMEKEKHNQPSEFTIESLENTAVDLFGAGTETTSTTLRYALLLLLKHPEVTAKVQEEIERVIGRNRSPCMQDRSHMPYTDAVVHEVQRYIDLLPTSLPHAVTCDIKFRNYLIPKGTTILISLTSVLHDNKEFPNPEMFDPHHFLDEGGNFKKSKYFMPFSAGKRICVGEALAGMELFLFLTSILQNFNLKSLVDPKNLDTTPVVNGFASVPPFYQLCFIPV

[5] = biological target: CYP1A2 (Homo sapiens, UniProt P05177); assay: biochemical
CYP1A2, sequence (P05177 whole entry): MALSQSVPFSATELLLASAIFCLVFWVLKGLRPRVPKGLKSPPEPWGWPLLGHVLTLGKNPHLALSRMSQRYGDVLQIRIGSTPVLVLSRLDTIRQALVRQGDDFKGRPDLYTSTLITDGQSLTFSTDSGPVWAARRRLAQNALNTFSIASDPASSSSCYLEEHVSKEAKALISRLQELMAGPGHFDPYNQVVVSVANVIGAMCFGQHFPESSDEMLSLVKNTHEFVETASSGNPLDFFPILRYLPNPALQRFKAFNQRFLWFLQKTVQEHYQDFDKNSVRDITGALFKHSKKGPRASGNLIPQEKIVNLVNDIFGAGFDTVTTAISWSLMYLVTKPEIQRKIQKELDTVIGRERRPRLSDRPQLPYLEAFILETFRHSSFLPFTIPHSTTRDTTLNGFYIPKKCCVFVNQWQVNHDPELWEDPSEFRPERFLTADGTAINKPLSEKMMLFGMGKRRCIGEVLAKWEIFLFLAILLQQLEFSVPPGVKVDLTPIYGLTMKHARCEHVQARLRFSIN

For `COc1ccc(OC)c(C(=O)/C=C/c2ccc3nccnc3c2)c1` [N9], the “MI: mutagenic index” value ([1]; TA102, +S9, 400 μg/plate) was 0.99, the Number of revertants/plate ([1]; TA102, +S9, 400 μg/plate) was 371.0±23.6 Rev/plate and the “MI: mutagenic index” value ([1]; TA102, -S9, 10 μg/plate) was 0.75. For the same compound, the Number of revertants/plate ([1]; TA102, -S9, 10 μg/plate) was 254.3±47.1 Rev/plate, the “MI: mutagenic index” value ([1]; TA102, -S9, 50 μg/plate) was 0.89 and the Number of revertants/plate ([1]; TA102, -S9, 50 μg/plate) was 299.3±50.6 Rev/plate. For the same compound, the “MI: mutagenic index” value ([1]; TA102, -S9, 100 μg/plate) was 1.01, the Number of revertants/plate ([1]; TA102, -S9, 100 μg/plate) was 341.3±16.8 Rev/plate and the “MI: mutagenic index” value ([1]; TA102, -S9, 200 μg/plate) was 0.96. For the same compound, the Number of revertants/plate ([1]; TA102, -S9, 200 μg/plate) was 324.3±4.2 Rev/plate, the “MI: mutagenic index” value ([1]; TA102, -S9, 400 μg/plate) was 0.95 and the Number of revertants/plate ([1]; TA102, -S9, 400 μg/plate) was 321.0±27.4 Rev/plate. For the same compound, the “MI: mutagenic index” value ([2]; +S9, 10 μg/plate) was 1.11, the Number of revertants/plate ([2]; +S9, 10 μg/plate) was 128.0±12.1 Rev/plate and the “MI: mutagenic index” value ([2]; +S9, 50 μg/plate) was 0.92. For the same compound, the Number of revertants/plate ([2]; +S9, 50 μg/plate) was 106.0±14.2 Rev/plate, the “MI: mutagenic index” value ([2]; +S9, 100 μg/plate) was 0.98 and the Number of revertants/plate ([2]; +S9, 100 μg/plate) was 113.5±5.0 Rev/plate. For the same compound, the “MI: mutagenic index” value ([2]; +S9, 200 μg/plate) was 0.71, the Number of revertants/plate ([2]; +S9, 200 μg/plate) was 82.0±1.0 Rev/plate and the “MI: mutagenic index” value ([2]; +S9, 400 μg/plate) was 0.90. For the same compound, the Number of revertants/plate ([2]; +S9, 400 μg/plate) was 104.0±28.8 Rev/plate, the “MI: mutagenic index” value ([2]; -S9, 10 μg/plate) was 1.14 and the Number of revertants/plate ([2]; -S9, 10 μg/plate) was 145.7±20.3 Rev/plate. The “MI: mutagenic index” value ([2]; -S9, 50 μg/plate) was 0.98, the Number of revertants/plate ([2]; -S9, 50 μg/plate) was 125.0±12.5 Rev/plate and the “MI: mutagenic index” value ([2]; -S9, 100 μg/plate) was 0.93. For the same compound, the Number of revertants/plate ([2]; -S9, 100 μg/plate) was 118.0±8.2 Rev/plate, the “MI: mutagenic index” value ([2]; -S9, 200 μg/plate) was 0.98 and the Number of revertants/plate ([2]; -S9, 200 μg/plate) was 124.3±13.3 Rev/plate. The “MI: mutagenic index” value ([2]; -S9, 400 μg/plate) was 1.05, the Number of revertants/plate ([2]; -S9, 400 μg/plate) was 134.0±3.6 Rev/plate and the “MI: mutagenic index” value ([3]; TA98, +S9, 10 μg/plate) was 1.09. For the same compound, the Number of revertants/plate ([3]; TA98, +S9, 10 μg/plate) was 43.7±4.7 Rev/plate, the “MI: mutagenic index” value ([3]; TA98, +S9, 50 μg/plate) was 0.80 and the Number of revertants/plate ([3]; TA98, +S9, 50 μg/plate) was 32.0±7.8 Rev/plate. The “MI: mutagenic index” value ([3]; TA98, +S9, 100 μg/plate) was 0.94, the Number of revertants/plate ([3]; TA98, +S9, 100 μg/plate) was 37.7±5.7 Rev/plate and the “MI: mutagenic index” value ([3]; TA98, +S9, 200 μg/plate) was 1.05. The Number of revertants/plate ([3]; TA98, +S9, 200 μg/plate) was 42.0±5.6 Rev/plate, the “MI: mutagenic index” value ([3]; TA98, +S9, 400 μg/plate) was 1.06 and the Number of revertants/plate ([3]; TA98, +S9, 400 μg/plate) was 42.3±6.7 Rev/plate. The “MI: mutagenic index” value ([3]; TA98, -S9, 10 μg/plate) was 0.83, the Number of revertants/plate ([3]; TA98, -S9, 10 μg/plate) was 28.3±7.6 Rev/plate and the “MI: mutagenic index” value ([3]; TA98, -S9, 50 μg/plate) was 0.73. For the same compound, the Number of revertants/plate ([3]; TA98, -S9, 50 μg/plate) was 25.0±6.1 Rev/plate, the “MI: mutagenic index” value ([3]; TA98, -S9, 100 μg/plate) was 0.81 and the Number of revertants/plate ([3]; TA98, -S9, 100 μg/plate) was 27.7±4.0 Rev/plate. The “MI: mutagenic index” value ([3]; TA98, -S9, 200 μg/plate) was 0.89, the Number of revertants/plate ([3]; TA98, -S9, 200 μg/plate) was 30.5±2.1 Rev/plate and the “MI: mutagenic index” value ([3]; TA98, -S9, 400 μg/plate) was 1.24. The Number of revertants/plate ([3]; TA98, -S9, 400 μg/plate) was 42.5±15.8 Rev/plate, the Inhibitory potential [4] was “weak inhibitory potential” and the IC50 [5] was 2 µM.
